Patent US20260256792A1, “TREATMENT OF CHRONIC SPONTANEOUS URTICARIA BY ADMINISTERING (R)-2-[3-[4-AMINO-3-(2-FLUORO-4-PHENOXY-PHENYL)PYRAZOLO[3,4-D]PYRIMIDIN-1-YL]PIPERIDINE-1-CARBONYL]-4-METHYL-4-[4-(OXETAN-3-YL)PIPERAZIN-1-YL]PENT-2-ENENITRILE” (priority 2023, published 2026)

Tested on: moderate-to-severe chronic spontaneous urticaria (CSU)
Assay: Phase 2 CSU study: urticaria activity score over 7 days (UAS7)
Assay type: in vivo, human
Details: ITT
From the text: The study comprises a 12 week, randomized, double-blind, placebo-controlled, multi-center, dose-ranging efficacy and safety phase, followed by a 40 week open label extension (OLE) phase (see FIG. 1). The study consists of three phases and an optional OLE phase. […] Clinically, CSU is characterized by the spontaneous and recurrent appearance of pruritic hives. The proposed primary endpoints were the UAS7 at Week 12 in EU and EU reference countries and the ISS7 in the US. Regardless of where a participant was from, all assessments were the same. The UAS7 score is a composite score containing both the HSS7 and the ISS7. This allowed a global assessment of the two key components of urticaria: hives and itch. […] The UAS is a validated PRO measure. […] The daily UAS scores range from 0 to 6 point/day. […] Patients were to complete the UAS using the e-diary. […] The following secondary endpoints were to be analyzed using the same approach as for the primary endpoint: • Change from baseline in UAS7 at Week 4 • Change from baseline in UAS7 at Week 12 (for US and US reference countries) • Change from baseline in ISS7 at Week 12 (except US and US reference countries) • Change from baseline in HSS7 at Week 12 The following responder secondary endpoints were to be analyzed using the Cochran-Mantel-Haenszel test adjusted by region: • Proportion of participants with UAS7<6 at Week 12 • Proportion of participants with UAS7=0 at Week 12 Participants who received selected prohibited medications and/or rescue medications were to be considered as non-responders for time points after the medication usage. For other participants, all available data including those collected during the off-treatment period were to be used to determine the responder/non-responder status. Missing data were to be considered as non-responders.

Compound: CC(C)(C=C(C#N)C(=O)N1CCC[C@@H](n2nc(-c3ccc(Oc4ccccc4)cc3F)c3c(N)ncnc32)C1)N1CCN(C2COC2)CC1 [rilzabrutinib, (R)-2-[3-[4-amino-3-(2-fluoro-4-phenoxy-phenyl)pyrazolo[3,4-d]pyrimidin-1-yl]piperidine-1-carbonyl]-4-methyl-4-[4-(oxetan-3-yl)piperazin-1-yl]pent-2-enenitrile]
- Non-responder n (%), UAS7 ≤6 (400 mg BID, Week 11): 28 (68.3) n (%)
- OR for rilzabrutinib vs. placebo, UAS7 = 0 (400 mg BID, Week 11): 2.892
- OR for rilzabrutinib vs. placebo, UAS7 ≤6 (400 mg BID, Week 11): 1.991
- RRD (%) for rilzabrutinib vs. placebo, UAS7 = 0 (400 mg BID, Week 11): 8.2 %
- RRD (%) for rilzabrutinib vs. placebo, UAS7 ≤6 (400 mg BID, Week 11): 11.8 %
- Responder n (%), UAS7 = 0 (400 mg BID, Week 11): 6 (14.6) n (%)
- Responder n (%), UAS7 ≤6 (400 mg BID, Week 11): 13 (31.7) n (%)
- Imputed non-responder n (%), UAS7 = 0 (400 mg BID, Week 12): 14 (34.1) n (%)
- Imputed non-responder n (%), UAS7 ≤6 (400 mg BID, Week 12): 14 (34.1) n (%)
- Non-responder n (%), UAS7 = 0 (400 mg BID, Week 12): 33 (80.5) n (%)
- Non-responder n (%), UAS7 ≤6 (400 mg BID, Week 12): 31 (75.6) n (%)
- OR for rilzabrutinib vs. placebo, UAS7 = 0 (400 mg BID, Week 12): 1.511
- OR for rilzabrutinib vs. placebo, UAS7 ≤6 (400 mg BID, Week 12): 2.067
- RRD (%) for rilzabrutinib vs. placebo, UAS7 ≤6 (400 mg BID, Week 12): 10.0 %
- Responder n (%), UAS7 = 0 (400 mg BID, Week 12): 8 (19.5) n (%)
- Responder n (%), UAS7 ≤6 (400 mg BID, Week 12): 10 (24.4) n (%)
- Imputed non-responder n (%), UAS7 = 0 (400 mg QPM, Week 1): 0 n (%)
- Imputed non-responder n (%), UAS7 ≤6 (400 mg QPM, Week 1): 0 n (%)
- Non-responder n (%), UAS7 = 0 (400 mg QPM, Week 1): 38 (100) n (%)
- Non-responder n (%), UAS7 ≤6 (400 mg QPM, Week 1): 36 (94.7) n (%)
- OR for rilzabrutinib vs. placebo, UAS7 = 0 (400 mg QPM, Week 1): 0.000 (NE,
- OR for rilzabrutinib vs. placebo, UAS7 ≤6 (400 mg QPM, Week 1): 1.099
- RRD (%) for rilzabrutinib vs. placebo, UAS7 = 0 (400 mg QPM, Week 1): −2.6 %
- RRD (%) for rilzabrutinib vs. placebo, UAS7 ≤6 (400 mg QPM, Week 1): 0.4 %
- Responder n (%), UAS7 = 0 (400 mg QPM, Week 1): 0 n (%)
- Responder n (%), UAS7 ≤6 (400 mg QPM, Week 1): 2 (5.3) n (%)
- Imputed non-responder n (%), UAS7 = 0 (400 mg QPM, Week 2): 0 n (%)
- Imputed non-responder n (%), UAS7 ≤6 (400 mg QPM, Week 2): 0 n (%)
- Non-responder n (%), UAS7 = 0 (400 mg QPM, Week 2): 38 (100) n (%)
- Non-responder n (%), UAS7 ≤6 (400 mg QPM, Week 2): 37 (97.4) n (%)
- OR for rilzabrutinib vs. placebo, UAS7 = 0 (400 mg QPM, Week 2): 0.000 (NE,
- OR for rilzabrutinib vs. placebo, UAS7 ≤6 (400 mg QPM, Week 2): 0.517
- RRD (%) for rilzabrutinib vs. placebo, UAS7 = 0 (400 mg QPM, Week 2): −2.6 %
- RRD (%) for rilzabrutinib vs. placebo, UAS7 ≤6 (400 mg QPM, Week 2): −2.3 %
- Responder n (%), UAS7 = 0 (400 mg QPM, Week 2): 0 n (%)
- Responder n (%), UAS7 ≤6 (400 mg QPM, Week 2): 1 (2.6) n (%)
- Imputed non-responder n (%), UAS7 = 0 (400 mg QPM, Week 3): 0 n (%)
- Imputed non-responder n (%), UAS7 ≤6 (400 mg QPM, Week 3): 0 n (%)
- Non-responder n (%), UAS7 = 0 (400 mg QPM, Week 3): 38 (100) n (%)
- Non-responder n (%), UAS7 ≤6 (400 mg QPM, Week 3): 36 (94.7) n (%)
- OR for rilzabrutinib vs. placebo, UAS7 = 0 (400 mg QPM, Week 3): 0.000 (NE,
- OR for rilzabrutinib vs. placebo, UAS7 ≤6 (400 mg QPM, Week 3): 0.553
- RRD (%) for rilzabrutinib vs. placebo, UAS7 = 0 (400 mg QPM, Week 3): −2.6 %
- RRD (%) for rilzabrutinib vs. placebo, UAS7 ≤6 (400 mg QPM, Week 3): −3.9%
- Responder n (%), UAS7 = 0 (400 mg QPM, Week 3): 0 n (%)
- Responder n (%), UAS7 ≤6 (400 mg QPM, Week 3): 2 (5.3) n (%)
- Imputed non-responder n (%), UAS7 = 0 (400 mg QPM, Week 4): 1 (2.6) n (%)
- Imputed non-responder n (%), UAS7 ≤6 (400 mg QPM, Week 4): 1 (2.6) n (%)
- Non-responder n (%), UAS7 = 0 (400 mg QPM, Week 4): 38 (100) n (%)
- Non-responder n (%), UAS7 ≤6 (400 mg QPM, Week 4): 36 (94.7) n (%)
- OR for rilzabrutinib vs. placebo, UAS7 = 0 (400 mg QPM, Week 4): 0.000 (NE,
- OR for rilzabrutinib vs. placebo, UAS7 ≤6 (400 mg QPM, Week 4): 0.432
- RRD (%) for rilzabrutinib vs. placebo, UAS7 = 0 (400 mg QPM, Week 4): −4.8 %
- RRD (%) for rilzabrutinib vs. placebo, UAS7 ≤6 (400 mg QPM, Week 4): −6.0%
- Responder n (%), UAS7 = 0 (400 mg QPM, Week 4): 0 n (%)
- Responder n (%), UAS7 ≤6 (400 mg QPM, Week 4): 2 (5.3) n (%)
- Imputed non-responder n (%), UAS7 = 0 (400 mg QPM, Week 5): 2 (5.3) n (%)
- Imputed non-responder n (%), UAS7 ≤6 (400 mg QPM, Week 5): 2 (5.3) n (%)
- Non-responder n (%), UAS7 = 0 (400 mg QPM, Week 5): 37 (97.4) n (%)
- Non-responder n (%), UAS7 ≤6 (400 mg QPM, Week 5): 36 (94.7) n (%)
- OR for rilzabrutinib vs. placebo, UAS7 = 0 (400 mg QPM, Week 5): 1.000
- OR for rilzabrutinib vs. placebo, UAS7 ≤6 (400 mg QPM, Week 5): 1.065
- RRD (%) for rilzabrutinib vs. placebo, UAS7 = 0 (400 mg QPM, Week 5): 0.0 %
- RRD (%) for rilzabrutinib vs. placebo, UAS7 ≤6 (400 mg QPM, Week 5): 0.3 %
- Responder n (%), UAS7 = 0 (400 mg QPM, Week 5): 1 (2.6) n (%)
- Responder n (%), UAS7 ≤6 (400 mg QPM, Week 5): 2 (5.3) n (%)
